{"source": "ChEMBL document CHEMBL3739350", "about": "“Novel hydrazone moiety-bearing aminopyrimidines as selective inhibitors of epidermal growth factor receptor T790M mutant” (Eur J Med Chem, 2015)"}
{"tested_on": "HT-29", "assay": "cells", "assay_type": "functional, cell-based", "settings": "Homo sapiens, HT-29, 72 h", "units": {"IC50": "µM"}, "description": "Cytotoxicity against human HT-29 cells assessed as inhibition of cell proliferation after 72 hrs by MTT assay"}
{"smiles": "C/C(=N\\Nc1ncc(Cl)c(Nc2cccc(NC(=O)/C=C/CN(C)C)c2)n1)c1ccc(F)cc1F", "IC50": 3.46}
{"smiles": "CN(C)C/C=C/C(=O)Nc1cccc(Nc2nc(N/N=C/c3cn(Cc4ccccc4)c4ccccc34)ncc2Cl)c1", "IC50": 2.12}
{"smiles": "C=CC(=O)Nc1cccc(Nc2nc(N/N=C(\\C)c3ccc(F)cc3)ncc2Cl)c1", "IC50": 5.05}
{"smiles": "C/C(=N\\Nc1ncc(Cl)c(Nc2cccc(NC(=O)/C=C/CN(C)C)c2)n1)c1ccccn1", "IC50": 0.12}
{"smiles": "C/C(=N\\Nc1ncc(Cl)c(Nc2cccc(NC(=O)/C=C/CN(C)C)c2)n1)c1ccncc1", "IC50": 10.9}
{"smiles": "C=CC(=O)Nc1cccc(Nc2nc(N/N=C(\\C)c3ccc(C)cc3)ncc2Cl)c1", "IC50": 3.21}
{"smiles": "C=CC(=O)Nc1cccc(Nc2nc(N/N=C(\\C)c3ccncc3)ncc2Cl)c1", "IC50": 12.8}
{"smiles": "C=CC(=O)Nc1cccc(Nc2nc(N/N=C/c3cn(Cc4ccccc4)c4ccccc34)ncc2Cl)c1", "IC50": 11}
{"smiles": "C/C(=N\\Nc1ncc(Cl)c(Nc2cccc(NC(=O)/C=C/CN(C)C)c2)n1)c1ccc(C)cc1", "IC50": 11.8}
{"smiles": "CN(C)C/C=C/C(=O)Nc1cccc(Nc2nc(N/N=C/c3ccc(F)cc3F)ncc2Cl)c1", "IC50": 2.92}
{"smiles": "C/C(=N\\Nc1ncc(Cl)c(Nc2cccc(NC(=O)/C=C/CN(C)C)c2)n1)c1cccnc1", "IC50": 9.66}
{"smiles": "Nc1cccc(Nc2nc(N/N=C/c3ccc(F)cc3)ncc2Cl)c1", "IC50": 12.3}
{"molecular_target": "Epidermal growth factor receptor (Homo sapiens, UniProt P00533)", "sequence (P00533 whole entry)": "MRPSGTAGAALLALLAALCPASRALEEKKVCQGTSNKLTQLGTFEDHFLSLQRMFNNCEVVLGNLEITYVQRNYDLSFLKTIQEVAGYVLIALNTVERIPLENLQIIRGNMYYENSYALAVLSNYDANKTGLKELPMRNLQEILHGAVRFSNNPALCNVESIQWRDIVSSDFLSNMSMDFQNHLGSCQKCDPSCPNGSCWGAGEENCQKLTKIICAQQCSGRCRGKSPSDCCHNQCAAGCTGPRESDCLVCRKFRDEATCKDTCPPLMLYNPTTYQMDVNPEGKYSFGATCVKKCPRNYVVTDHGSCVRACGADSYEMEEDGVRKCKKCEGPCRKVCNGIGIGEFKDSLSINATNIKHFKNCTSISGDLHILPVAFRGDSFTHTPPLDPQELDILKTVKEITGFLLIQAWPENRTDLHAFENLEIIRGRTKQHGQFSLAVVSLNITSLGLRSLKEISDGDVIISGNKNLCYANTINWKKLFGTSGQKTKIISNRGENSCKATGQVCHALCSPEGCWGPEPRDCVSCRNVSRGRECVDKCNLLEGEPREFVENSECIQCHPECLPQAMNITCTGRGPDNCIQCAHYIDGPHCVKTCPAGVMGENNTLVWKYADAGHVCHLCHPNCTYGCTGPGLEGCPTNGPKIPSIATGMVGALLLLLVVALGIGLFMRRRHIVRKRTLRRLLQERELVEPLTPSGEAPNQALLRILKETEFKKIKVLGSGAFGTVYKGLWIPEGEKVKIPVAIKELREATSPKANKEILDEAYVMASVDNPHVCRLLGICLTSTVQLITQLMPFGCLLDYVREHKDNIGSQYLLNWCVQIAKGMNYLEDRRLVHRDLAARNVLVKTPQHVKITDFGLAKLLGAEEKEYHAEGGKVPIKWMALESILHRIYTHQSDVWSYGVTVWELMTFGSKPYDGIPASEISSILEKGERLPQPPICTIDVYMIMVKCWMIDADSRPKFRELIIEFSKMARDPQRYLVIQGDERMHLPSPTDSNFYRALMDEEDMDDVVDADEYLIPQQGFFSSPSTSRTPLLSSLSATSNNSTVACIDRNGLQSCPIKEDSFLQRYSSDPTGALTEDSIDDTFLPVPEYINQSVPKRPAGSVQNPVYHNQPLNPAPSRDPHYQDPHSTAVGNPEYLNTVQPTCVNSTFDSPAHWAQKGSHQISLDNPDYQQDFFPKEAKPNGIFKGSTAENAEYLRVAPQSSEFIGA", "assay": "Inhibition of wild type recombinant human EGFR preincubated for 10 mins followed by FAM-labeled peptide/ATP addition measured after 1 hr by mobility shift assay", "settings": "not given", "units": {"IC50": "µM"}}
{"smiles": "C/C(=N\\Nc1ncc(Cl)c(Nc2cccc(NC(=O)/C=C/CN(C)C)c2)n1)c1ccc(F)cc1F", "IC50": "> 20"}
{"smiles": "CN(C)C/C=C/C(=O)Nc1cccc(Nc2nc(N/N=C/c3cn(Cc4ccccc4)c4ccccc34)ncc2Cl)c1", "IC50": "> 20"}
{"smiles": "C=CC(=O)Nc1cccc(Nc2nc(N/N=C(\\C)c3ccc(F)cc3)ncc2Cl)c1", "IC50": "> 20"}
{"smiles": "C/C(=N\\Nc1ncc(Cl)c(Nc2cccc(NC(=O)/C=C/CN(C)C)c2)n1)c1ccccn1", "IC50": "> 20"}
{"smiles": "C=CC(=O)Nc1cccc(Nc2nc(N/N=C(\\C)c3ccc(C)cc3)ncc2Cl)c1", "IC50": "> 20"}
{"smiles": "CN(C)C/C=C/C(=O)Nc1cccc(Nc2nc(N/N=C/c3ccc(F)cc3F)ncc2Cl)c1", "IC50": "> 20"}
{"smiles": "C/C(=N\\Nc1ncc(Cl)c(Nc2cccc(NC(=O)/C=C/CN(C)C)c2)n1)c1cccnc1", "IC50": "> 20"}
{"molecular_target": "Epidermal growth factor receptor (Homo sapiens, UniProt P00533, T790M)", "sequence (P00533 25-1210 T790M limits assumed)": "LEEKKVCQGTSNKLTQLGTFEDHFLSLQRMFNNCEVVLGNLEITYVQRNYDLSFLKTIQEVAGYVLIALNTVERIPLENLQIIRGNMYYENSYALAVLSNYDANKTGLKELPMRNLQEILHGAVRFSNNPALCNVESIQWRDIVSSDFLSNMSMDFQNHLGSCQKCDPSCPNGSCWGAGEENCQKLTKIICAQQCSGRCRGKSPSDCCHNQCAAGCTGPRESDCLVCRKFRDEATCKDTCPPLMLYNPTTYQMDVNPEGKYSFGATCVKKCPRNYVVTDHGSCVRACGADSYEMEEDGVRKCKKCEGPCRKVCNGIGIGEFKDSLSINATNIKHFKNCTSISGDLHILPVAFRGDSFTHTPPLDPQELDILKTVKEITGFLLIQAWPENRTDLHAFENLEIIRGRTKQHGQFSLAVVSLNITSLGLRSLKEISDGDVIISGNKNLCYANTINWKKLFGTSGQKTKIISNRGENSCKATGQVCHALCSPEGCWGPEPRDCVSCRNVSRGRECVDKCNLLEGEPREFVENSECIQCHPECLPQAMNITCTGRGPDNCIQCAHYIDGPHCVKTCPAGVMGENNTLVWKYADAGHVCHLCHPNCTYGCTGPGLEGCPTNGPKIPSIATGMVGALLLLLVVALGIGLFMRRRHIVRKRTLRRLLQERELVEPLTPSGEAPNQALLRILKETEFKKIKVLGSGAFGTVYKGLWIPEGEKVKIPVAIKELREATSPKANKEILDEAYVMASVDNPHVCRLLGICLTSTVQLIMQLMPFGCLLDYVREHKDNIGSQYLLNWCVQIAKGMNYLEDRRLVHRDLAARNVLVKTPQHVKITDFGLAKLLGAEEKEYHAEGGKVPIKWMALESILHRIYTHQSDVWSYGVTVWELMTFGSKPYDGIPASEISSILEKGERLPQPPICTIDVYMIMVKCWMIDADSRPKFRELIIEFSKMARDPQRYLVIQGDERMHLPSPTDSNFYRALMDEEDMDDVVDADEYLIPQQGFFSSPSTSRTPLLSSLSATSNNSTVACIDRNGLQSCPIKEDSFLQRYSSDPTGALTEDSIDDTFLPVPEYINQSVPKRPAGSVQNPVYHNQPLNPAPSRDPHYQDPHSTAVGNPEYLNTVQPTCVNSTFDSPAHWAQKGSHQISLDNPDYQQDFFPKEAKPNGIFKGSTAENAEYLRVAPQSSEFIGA", "assay": "not given", "assay_type": "protein assay", "settings": "not given", "units": {"IC50": "µM"}}
{"smiles": "C/C(=N\\Nc1ncc(Cl)c(Nc2cccc(NC(=O)/C=C/CN(C)C)c2)n1)c1ccc(F)cc1F", "IC50": 0.82}
{"smiles": "CN(C)C/C=C/C(=O)Nc1cccc(Nc2nc(N/N=C/c3cn(Cc4ccccc4)c4ccccc34)ncc2Cl)c1", "IC50": 0.79}
{"smiles": "C=CC(=O)Nc1cccc(Nc2nc(N/N=C(\\C)c3ccc(F)cc3)ncc2Cl)c1", "IC50": 2.53}
{"smiles": "CN(C)C/C=C/C(=O)Nc1cccc(Nc2nc(N/N=C/c3ccc(F)cc3F)ncc2Cl)c1", "IC50": 2.51}
{"molecular_target": "Epidermal growth factor receptor (Homo sapiens, UniProt P00533, DELE746/T790M)", "sequence (P00533 whole entry E746del/T790M, looked up)": "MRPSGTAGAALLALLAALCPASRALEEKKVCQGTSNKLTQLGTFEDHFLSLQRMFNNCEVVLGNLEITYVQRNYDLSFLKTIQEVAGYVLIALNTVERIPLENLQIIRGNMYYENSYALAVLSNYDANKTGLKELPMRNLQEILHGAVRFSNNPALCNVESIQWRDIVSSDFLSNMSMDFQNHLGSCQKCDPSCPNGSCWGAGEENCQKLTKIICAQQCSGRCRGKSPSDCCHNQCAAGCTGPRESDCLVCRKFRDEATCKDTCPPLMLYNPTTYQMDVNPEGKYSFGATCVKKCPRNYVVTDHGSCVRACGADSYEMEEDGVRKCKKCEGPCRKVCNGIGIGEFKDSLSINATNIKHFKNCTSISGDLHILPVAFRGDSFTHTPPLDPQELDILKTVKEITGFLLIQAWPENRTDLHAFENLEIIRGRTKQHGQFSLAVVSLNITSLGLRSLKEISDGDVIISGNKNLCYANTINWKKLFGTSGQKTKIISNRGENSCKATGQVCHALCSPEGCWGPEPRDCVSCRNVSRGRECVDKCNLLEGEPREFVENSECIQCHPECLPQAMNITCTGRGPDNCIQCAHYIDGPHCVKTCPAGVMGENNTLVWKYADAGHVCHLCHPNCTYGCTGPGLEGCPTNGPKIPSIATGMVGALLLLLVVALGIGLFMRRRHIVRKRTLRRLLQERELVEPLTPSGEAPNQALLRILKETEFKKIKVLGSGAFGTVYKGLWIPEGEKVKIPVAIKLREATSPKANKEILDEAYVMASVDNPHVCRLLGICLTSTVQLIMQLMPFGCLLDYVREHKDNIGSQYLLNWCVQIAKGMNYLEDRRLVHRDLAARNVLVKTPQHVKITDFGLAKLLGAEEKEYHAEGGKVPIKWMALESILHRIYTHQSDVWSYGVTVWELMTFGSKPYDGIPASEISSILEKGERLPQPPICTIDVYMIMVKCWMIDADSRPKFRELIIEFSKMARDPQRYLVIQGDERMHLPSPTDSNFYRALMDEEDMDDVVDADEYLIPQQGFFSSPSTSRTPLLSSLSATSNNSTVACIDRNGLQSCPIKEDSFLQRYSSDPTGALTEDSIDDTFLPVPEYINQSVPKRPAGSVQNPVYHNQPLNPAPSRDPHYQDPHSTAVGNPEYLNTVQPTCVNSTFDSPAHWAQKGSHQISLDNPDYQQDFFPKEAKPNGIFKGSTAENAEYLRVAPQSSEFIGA", "assay": "not given", "assay_type": "protein assay", "settings": "not given", "units": {"IC50": "µM"}}
{"smiles": "C/C(=N\\Nc1ncc(Cl)c(Nc2cccc(NC(=O)/C=C/CN(C)C)c2)n1)c1ccc(F)cc1F", "IC50": 1.25}
{"smiles": "CN(C)C/C=C/C(=O)Nc1cccc(Nc2nc(N/N=C/c3cn(Cc4ccccc4)c4ccccc34)ncc2Cl)c1", "IC50": 0.76}
{"smiles": "C=CC(=O)Nc1cccc(Nc2nc(N/N=C(\\C)c3ccc(F)cc3)ncc2Cl)c1", "IC50": 1.29}
{"smiles": "CN(C)C/C=C/C(=O)Nc1cccc(Nc2nc(N/N=C/c3ccc(F)cc3F)ncc2Cl)c1", "IC50": 5.11}
{"molecular_target": "Epidermal growth factor receptor (Homo sapiens, UniProt P00533, L858R/T790M)", "sequence (P00533 25-1210 T790M/L858R limits assumed)": "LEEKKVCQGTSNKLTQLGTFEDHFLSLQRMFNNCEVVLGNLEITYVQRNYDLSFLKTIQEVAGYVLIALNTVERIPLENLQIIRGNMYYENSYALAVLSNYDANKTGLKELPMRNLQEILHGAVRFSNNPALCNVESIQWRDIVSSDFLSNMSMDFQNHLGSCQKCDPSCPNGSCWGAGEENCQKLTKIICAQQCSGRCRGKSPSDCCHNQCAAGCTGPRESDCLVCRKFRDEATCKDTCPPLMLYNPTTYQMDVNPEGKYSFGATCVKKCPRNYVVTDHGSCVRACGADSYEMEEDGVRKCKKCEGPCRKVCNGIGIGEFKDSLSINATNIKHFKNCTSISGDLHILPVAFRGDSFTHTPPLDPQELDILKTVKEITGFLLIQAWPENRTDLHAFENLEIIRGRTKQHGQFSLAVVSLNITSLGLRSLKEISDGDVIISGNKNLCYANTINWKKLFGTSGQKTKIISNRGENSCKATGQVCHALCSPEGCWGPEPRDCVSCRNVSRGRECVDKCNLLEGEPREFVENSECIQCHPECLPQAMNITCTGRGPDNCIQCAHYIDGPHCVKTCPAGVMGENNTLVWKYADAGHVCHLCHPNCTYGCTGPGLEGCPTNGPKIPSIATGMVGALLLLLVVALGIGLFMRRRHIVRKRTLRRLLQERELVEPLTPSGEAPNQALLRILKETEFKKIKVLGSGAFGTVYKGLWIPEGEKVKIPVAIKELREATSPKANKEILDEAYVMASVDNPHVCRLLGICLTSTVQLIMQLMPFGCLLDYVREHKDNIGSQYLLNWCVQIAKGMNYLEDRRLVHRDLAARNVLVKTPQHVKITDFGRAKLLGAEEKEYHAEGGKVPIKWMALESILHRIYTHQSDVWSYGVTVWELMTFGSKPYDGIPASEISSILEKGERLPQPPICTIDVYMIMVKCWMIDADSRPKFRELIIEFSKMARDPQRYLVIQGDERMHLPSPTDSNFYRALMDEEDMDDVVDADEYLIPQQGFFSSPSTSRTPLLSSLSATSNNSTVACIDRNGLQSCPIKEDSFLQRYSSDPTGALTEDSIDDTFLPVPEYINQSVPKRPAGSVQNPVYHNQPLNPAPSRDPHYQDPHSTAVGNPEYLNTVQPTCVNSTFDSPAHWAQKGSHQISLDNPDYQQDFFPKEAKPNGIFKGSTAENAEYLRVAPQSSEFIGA", "assay": "not given", "assay_type": "protein assay", "settings": "not given", "units": {"IC50": "µM"}}
{"smiles": "C/C(=N\\Nc1ncc(Cl)c(Nc2cccc(NC(=O)/C=C/CN(C)C)c2)n1)c1ccc(F)cc1F", "IC50": 0.72}
{"smiles": "CN(C)C/C=C/C(=O)Nc1cccc(Nc2nc(N/N=C/c3cn(Cc4ccccc4)c4ccccc34)ncc2Cl)c1", "IC50": 0.88}
{"smiles": "C=CC(=O)Nc1cccc(Nc2nc(N/N=C(\\C)c3ccc(F)cc3)ncc2Cl)c1", "IC50": 1.68}
{"smiles": "C/C(=N\\Nc1ncc(Cl)c(Nc2cccc(NC(=O)/C=C/CN(C)C)c2)n1)c1ccccn1", "IC50": 2.38}
{"smiles": "C=CC(=O)Nc1cccc(Nc2nc(N/N=C(\\C)c3ccc(C)cc3)ncc2Cl)c1", "IC50": 5.67}
{"smiles": "CN(C)C/C=C/C(=O)Nc1cccc(Nc2nc(N/N=C/c3ccc(F)cc3F)ncc2Cl)c1", "IC50": 2.52}
{"smiles": "C/C(=N\\Nc1ncc(Cl)c(Nc2cccc(NC(=O)/C=C/CN(C)C)c2)n1)c1cccnc1", "IC50": 4.32}
{"tested_on": "NCI-H1975", "assay": "cells", "assay_type": "functional, cell-based", "settings": "Homo sapiens, NCI-H1975, 72 h", "units": {"IC50": "µM"}}
{"smiles": "C=CC(=O)Nc1cccc(Nc2nc(NNC(=O)c3ccc(OC)cc3)ncc2Cl)c1", "IC50": 8.46}
{"smiles": "C=CC(=O)Nc1cccc(Nc2nc(NNC(=O)c3ccc(F)cc3)ncc2Cl)c1", "IC50": 5.31}
{"smiles": "C/C(=N\\Nc1ncc(Cl)c(Nc2cccc(NC(=O)/C=C/CN(C)C)c2)n1)c1ccc(F)cc1F", "IC50": 0.48}
{"smiles": "CN(C)C/C=C/C(=O)Nc1cccc(Nc2nc(N/N=C/c3cn(Cc4ccccc4)c4ccccc34)ncc2Cl)c1", "IC50": 0.26}
{"smiles": "C=CC(=O)Nc1cccc(Nc2nc(N/N=C(\\C)c3ccc(F)cc3)ncc2Cl)c1", "IC50": 0.39}
{"smiles": "C/C(=N\\Nc1ncc(Cl)c(Nc2cccc(NC(=O)/C=C/CN(C)C)c2)n1)c1ccccn1", "IC50": 0.077}
{"smiles": "C/C(=N\\Nc1ncc(Cl)c(Nc2cccc(NC(=O)/C=C/CN(C)C)c2)n1)c1ccncc1", "IC50": 6.24}
{"smiles": "C=CC(=O)Nc1cccc(Nc2nc(N/N=C(\\C)c3ccc(C)cc3)ncc2Cl)c1", "IC50": 0.74}
{"smiles": "C=CC(=O)Nc1cccc(Nc2nc(N/N=C(\\C)c3ccncc3)ncc2Cl)c1", "IC50": 3.69}
{"smiles": "C=CC(=O)Nc1cccc(Nc2nc(N/N=C/c3cn(Cc4ccccc4)c4ccccc34)ncc2Cl)c1", "IC50": 1.35}
{"smiles": "C/C(=N\\Nc1ncc(Cl)c(Nc2cccc(NC(=O)/C=C/CN(C)C)c2)n1)c1ccc(C)cc1", "IC50": 1.37}
{"smiles": "CN(C)C/C=C/C(=O)Nc1cccc(Nc2nc(N/N=C/c3ccc(F)cc3F)ncc2Cl)c1", "IC50": 0.17}
{"smiles": "C/C(=N\\Nc1ncc(Cl)c(Nc2cccc(NC(=O)/C=C/CN(C)C)c2)n1)c1cccnc1", "IC50": 2.35}
{"smiles": "Nc1cccc(Nc2nc(N/N=C/c3ccc(F)cc3)ncc2Cl)c1", "IC50": 9.92}
{"tested_on": "A549", "assay": "Antiproliferative activity against human A549 cells harboring wild type EGFR/k-Ras mutation after 72 hrs by MTT assay", "assay_type": "functional, cell-based", "settings": "A549, 72 h", "units": {"IC50": "µM"}}
{"smiles": "C=CC(=O)Nc1cccc(Nc2nc(NNC(=O)c3ccc(OC)cc3)ncc2Cl)c1", "IC50": 26}
{"smiles": "C=CC(=O)Nc1cccc(Nc2nc(NNC(=O)c3ccc(F)cc3)ncc2Cl)c1", "IC50": 31}
{"smiles": "C/C(=N\\Nc1ncc(Cl)c(Nc2cccc(NC(=O)/C=C/CN(C)C)c2)n1)c1ccc(F)cc1F", "IC50": 5.57}
{"smiles": "CN(C)C/C=C/C(=O)Nc1cccc(Nc2nc(N/N=C/c3cn(Cc4ccccc4)c4ccccc34)ncc2Cl)c1", "IC50": 2.91}
{"smiles": "C=CC(=O)Nc1cccc(Nc2nc(N/N=C(\\C)c3ccc(F)cc3)ncc2Cl)c1", "IC50": 8.2}
{"smiles": "C/C(=N\\Nc1ncc(Cl)c(Nc2cccc(NC(=O)/C=C/CN(C)C)c2)n1)c1ccccn1", "IC50": 0.83}
{"smiles": "C/C(=N\\Nc1ncc(Cl)c(Nc2cccc(NC(=O)/C=C/CN(C)C)c2)n1)c1ccncc1", "IC50": 34.9}
{"smiles": "C=CC(=O)Nc1cccc(Nc2nc(N/N=C(\\C)c3ccc(C)cc3)ncc2Cl)c1", "IC50": 5.36}
{"smiles": "C=CC(=O)Nc1cccc(Nc2nc(N/N=C(\\C)c3ccncc3)ncc2Cl)c1", "IC50": 28.7}
{"smiles": "C=CC(=O)Nc1cccc(Nc2nc(N/N=C/c3cn(Cc4ccccc4)c4ccccc34)ncc2Cl)c1", "IC50": "> 100"}
{"smiles": "C/C(=N\\Nc1ncc(Cl)c(Nc2cccc(NC(=O)/C=C/CN(C)C)c2)n1)c1ccc(C)cc1", "IC50": 10.8}
{"smiles": "CN(C)C/C=C/C(=O)Nc1cccc(Nc2nc(N/N=C/c3ccc(F)cc3F)ncc2Cl)c1", "IC50": 2.17}
{"smiles": "C/C(=N\\Nc1ncc(Cl)c(Nc2cccc(NC(=O)/C=C/CN(C)C)c2)n1)c1cccnc1", "IC50": 17.3}
{"smiles": "Nc1cccc(Nc2nc(N/N=C/c3ccc(F)cc3)ncc2Cl)c1", "IC50": 13.7}
